Results from the NIST ThermoML archive (doi:10.1021/je100341q).
Numbers after ± are expanded uncertainties.

What was measured:
[1] = refractive index (Na D-line) (dimensionless); conditions: 293.15 K; 101.33 kPa; Liquid; Standard Abbe refractometry
[2] = for mass density: 293.15 K, 101.33 kPa, Liquid, Pycnometric method; for Normal melting temperature: Crystal, DTA
[3] = Molar enthalpy of transition or fusion; conditions: Crystal; DSC

SMILES | refractive index [1] | mass density [2] | Normal melting temperature [2] | Molar enthalpy of transition or fusion [3]
COc1ccc(P(c2ccc(OC)cc2)c2ccc(OC)cc2)cc1 [tris(4-methoxyphenyl)phosphane] | – | – | 130.67 ± 0.5 °C | 6.14 ± 0.186 kcal/mol
C1CCCCC1 [cyclohexane] | 1.4266 ± 0.0007 | 779 ± 1 kg/m3 | – | –
c1ccncc1 [pyridine] | 1.5095 ± 0.0007 | 983 ± 1 kg/m3 | – | –
CO [methanol] | 1.3301 ± 0.0007 | 792 ± 1 kg/m3 | – | –
CCC(C)=O [butanone] | 1.3788 | 805 ± 1 kg/m3 | – | –
Cc1ccccc1 [toluene] | 1.4967 ± 0.0007 | 866 ± 1 kg/m3 | – | –
O=P1(Oc2ccccc2)OCC2(CO1)COP(=O)(Oc1ccccc1)OC2 (stereo not given) | – | – | 196.43 ± 0.5 °C | 8.71 ± 0.239 kcal/mol
CCOCC [diethyl ether] | 1.3497 ± 0.0007 | 714 ± 1 kg/m3 | – | –
CC(C)=O [acetone] | 1.359 ± 0.0007 | 790 ± 1 kg/m3 | – | –
O=C(O)CCP(=O)(O)c1ccccc1 [3-(hydroxy(phenyl)phosphoryl)propanoic acid] | – | – | 159.51 ± 0.5 °C | 8.03 ± 0.232 kcal/mol

The next lines start with the values.

refractive index [1] | mass density [2] | Normal melting temperature [2] | Molar enthalpy of transition or fusion [3] | SMILES
1.4065 ± 0.0007 | 929 ± 1 kg/m3 | – | – | CCOCCO [2-ethoxyethan-1-ol]
1.366 ± 0.0007 | 790 ± 1 kg/m3 | – | – | CCO [ethanol]
1.4237 ± 0.0007 | 1321 ± 1 kg/m3 | – | – | ClCCl [dichloromethane]
1.3719 ± 0.0007 | 899 ± 1 kg/m3 | – | – | CCOC(C)=O [ethyl acetate]
1.3716 ± 0.0007 | 1049 ± 1 kg/m3 | – | – | CC(=O)O [acetic acid]
– | – | 144.69 ± 0.5 °C | 6.82 ± 0.194 kcal/mol | COc1ccc(P(=O)(c2ccc(OC)cc2)c2ccc(OC)cc2)cc1 [tris(4-methoxyphenyl)phosphine oxide]
1.343 ± 0.0007 | 783 ± 1 kg/m3 | – | – | CC#N [acetonitrile]
1.4476 ± 0.0007 | 1484 ± 2 kg/m3 | – | – | ClC(Cl)Cl [trichloromethane]
– | – | 310.57 ± 0.5 °C | 5.37 ± 0.17 kcal/mol | O=P1(O)OCC2(CO1)COP(=O)(O)OC2 (stereo not given)
1.5011 ± 0.0007 | 879 ± 1 kg/m3 | – | – | c1ccccc1 [benzene]
– | – | 140.2 ± 0.5 °C | 6.49 ± 0.196 kcal/mol | O=P(O)(CO)c1ccccc1 [(hydroxymethyl)(phenyl)phosphinic acid]
1.405 ± 0.0008 | – | – | – | C1CCOC1 [tetrahydrofuran]
1.4175 ± 0.0008 | 1034 ± 1 kg/m3 | – | – | C1COCCO1 [1,4-dioxane]
